Values after ≈ are worked out from the molar mass of the structure shown. Values joined by “and” are separate entries in the source; they are usually repeats but may differ in a detail not shown here. Equal entries are not always repeated. Where two headings read alike, the source gives them in different places.
Experiments:
papain [1] = molecular target: T1, papain (Carica papaya, UniProt P00784); assay: Cysteine protease inhibitory activity, papain with Bz-DL-Arg-pNA substrate; assay type: biochemical
T1 construct: To solutions of active papain (final concentration: 0.05 mM); purchased Sigma Chemical Co., St. Louis, MO, USA
T1 sequence (P00784 134-345): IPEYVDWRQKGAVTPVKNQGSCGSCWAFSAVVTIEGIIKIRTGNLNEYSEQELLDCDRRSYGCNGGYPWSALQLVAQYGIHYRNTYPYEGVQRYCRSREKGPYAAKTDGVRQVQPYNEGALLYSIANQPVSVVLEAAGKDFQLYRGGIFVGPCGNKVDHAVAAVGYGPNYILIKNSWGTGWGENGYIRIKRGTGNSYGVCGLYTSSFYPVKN
Description: The capacity of the 1-pyridylimidazo[1,5-a]pyridine derivatives to inhibit cysteine proteases was tested using papain as the model enzyme. The proteolytic activity of the reaction mixtures was determined using Bz-DL-Arg-pNA as the chromogenic substrate. To solutions of active papain (final concentration: 0.05 mM) were added concentrated solutions of the different derivatives to final concentrations of 0.2 mM. […] The same procedure was used at 32°C and 42°C for thermodynamics studies. The kinetic parameters for the substrate hydrolysis were determined by measuring the initial rate of enzymatic activity. The inhibition constant Ki was determined by Dixon method and also by the Lineweaver–Burk equation. The Km value was calculated from the double-reciprocal equation by fitting the data into the computer software Origin 6.1. The Lineweaver–Burk plot was used to determine the types of inhibition. For the kinetic analysis and rate constant determinations, the assays were carried out in triplicate, and the average value was considered throughout this work.

papain [2] = molecular target: T1, papain; assay: Thermodynamics analysis of papain inhibition (Van't Hoff); assay type: biochemical; conditions: Value at 37°C
Description: Free energy changes of inhibition of papain against 1- substituted pyridylimidazo[1,5-a] pyridine derivatives (ΔG) were determined by the equation, [drawing 1] (1)
Temperature dependence of the inhibition constants was used to determine the thermodynamic parameters. Changes in enthalpy (ΔH) were determined from the Van’t Hoff plots by using the equation, [drawing 2] (2)
Where ΔH is enthalpy change, R is gas constant, ΔS is entropy change and T is the absolute temperature. The entropy change was obtained from the equation, [drawing 3] (3)

[3] = tested on: Bacillus spp. (ATCC-14593); assay: MIC, micro dilution method; assay type: cell-based; conditions: ATCC14593; Bacillus sp.
Description: (§1) The disk diffusion method was used for the preliminary antibacterial evaluation of 1-pyridylimidazo[1,5-a]pyridine derivatives. The MIC50 of these derivatives, showing inhibition in the preliminary tests, were further determined by the microtitre plate technique using micro dilution method. In brief, the bacterial strains (S. aureus, P. vulgaris, Group D Streptococci, Bacillus sp., E. coli, P. aeruginosa and S. morganii)) were grown and diluted to 2×10^5 colony-forming units (CFU)/ml in sodium phosphate buffer (SPB) containing 0.03% Luria–Bertani (LB) broth. The synthesized derivatives were dissolved in DMSO and their serial dilution was performed in 50 µL of LB medium in 96-well microtitre plate to achieve the required concentrations (0.1–10 µg/ml) with bacterial inoculums (5×10^4 CFU per well). DMSO was taken as negative control and Ceftriaxone and clotrimazole were taken as positive control. After incubation at 37°C overnight, the MICs were taken as the lowest inhibitor concentration at which the bacterial growth was inhibited. The average of three values was calculated and that was the MIC for the test material and bacterial strain. […]

[4] = tested on: Escherichia coli (ATCC-25922); assay: MIC, micro dilution method; assay type: cell-based; conditions: ATCC25922, E. coli
Description: as §1

[5] = tested on: Proteus vulgaris (ATCC-29905); assay: MIC, micro dilution method; assay type: cell-based; conditions: ATCC29905, P. vulgaris
Description: as §1

[6] = tested on: Pseudomonas aeruginosa (ATCC-27853); assay: MIC, micro dilution method; assay type: cell-based; conditions: ATCC27853
Description: as §1

[7] = tested on: Staphylococcus aureus (ATCC-25923); assay: MIC, micro dilution method; assay type: cell-based; conditions: ATCC25923, S. aureus
Description: as §1

[8] = tested on: Group D Streptococci (ATCC-12959); assay: MIC, micro dilution method; assay type: cell-based
Description: (§2) The disk diffusion method was used for the preliminary antibacterial evaluation of 1-pyridylimidazo[1,5-a]pyridine derivatives. The MIC50 of these derivatives, showing inhibition in the preliminary tests, were further determined by the microtitre plate technique using micro dilution method. In brief, the bacterial strains (S. aureus, P. vulgaris, Group D Streptococci, Bacillus sp., E. coli, P. aeruginosa and S. morganii)) were grown and diluted to 2×10^5 colony-forming units (CFU)/ml in sodium phosphate buffer (SPB) containing 0.03% Luria–Bertani (LB) broth. The synthesized derivatives were dissolved in DMSO and their serial dilution was performed in 50 µL of LB medium in 96-well microtitre plate to achieve the required concentrations (0.1–10 µg/ml) with bacterial inoculums (5×10^4 CFU per well). DMSO was taken as negative control and Ceftriaxone and clotrimazole were taken as positive control. After incubation at 37°C overnight, the MICs were taken as the lowest inhibitor concentration at which the bacterial growth was inhibited. The average of three values was calculated and that was the MIC for the test material and bacterial strain.
(§3) For the agar plate count method, 25 µL aliquots of bacteria at 1×10^5 CFU/ml in SPB containing 0.03% LB broth were incubated with 25 µL of diluted compounds for 2 h at 37°C. The mixtures of bacteria and compounds were serially diluted 10-fold with SPB and plated on LB plates that were incubated at 37°C overnight. Bacterial colonies were enumerated the following day.

[9] = tested on: Serratia morganii (ATCC- 31665); assay: MIC, micro dilution method; assay type: cell-based; conditions: ATCC31665
Description: as §2, §3

[10] = tested on: Bacillus spp. (ATCC-14593); assay: MBC, sub cultivation from MIC plate; assay type: cell-based; conditions: ATCC14593, Bacillus sp.
Description: (§4) After having determined the MICs, bacterial strains from the wells of the microtitre plate with no visible bacterial growth were removed for serial sub cultivation of 2 µl into another new microtitre plate containing 100 µl of broth per well and further incubated for 24 h. The lowest concentration with no visible growth was defined as MBC [28], indicating 99.5% killing of the original inoculum. The absorbance of each well was measured at a wavelength of 620 nm by Microplate Manager 4.0 (Bio-Rad laboratories) and compared with a blank. Solvent (DMSO) was used as a negative control. Three replicates were done for each compound and experiment was repeated two times.

[11] = tested on: Escherichia coli (ATCC-25922); assay: MBC, sub cultivation from MIC plate; assay type: cell-based; conditions: ATCC25922, E. coli
Description: as §4

[12] = tested on: Group D Streptococci (ATCC-12959); assay: MBC, sub cultivation from MIC plate; assay type: cell-based
Description: as §4

[13] = tested on: Proteus vulgaris (ATCC-29905); assay: MBC, sub cultivation from MIC plate; assay type: cell-based; conditions: ATCC29905, P. vulgaris
Description: as §4

[14] = tested on: Pseudomonas aeruginosa (ATCC-27853); assay: MBC, sub cultivation from MIC plate; assay type: cell-based
Description: as §4

[15] = tested on: Serratia morganii (ATCC- 31665); assay: MBC, sub cultivation from MIC plate; assay type: cell-based
Description: as §4

[16] = tested on: Staphylococcus aureus (ATCC-25923); assay: MBC, sub cultivation from MIC plate; assay type: cell-based; conditions: ATCC25923, S. aureus
Description: as §4

[17] = tested on: Bacillus spp. (ATCC-14593); assay: MIC, micro dilution method; assay type: cell-based; conditions: ATCC14593; Bacillus sp.; remark: listed apart in the source

Question: What does the source list for `Oc1ccccc1-c1nc(-c2ccccn2)c2ccccn12` [Compound 3a, 1-(2-pyridyl)-3-(2-hydroxyphenyl) imidazo[1,5-a]pyridine]?
Answer: Ki (papain [1]; 32°C): 14.3 µM; Ki (papain [1]; 37°C): 13.7 µM; Ki (papain [1]; 42°C): 11.1 µM; Type of inhibition (papain [1]; Lineweaver–Burk plot): Non- Competitive; IC50 (papain [1]; papain): 13.4 µM; ΔG (free energy of binding) (papain [2]): −6.86 Kcalmol^−1 and −6.86(±0.30) Kcalmol^−1; ΔS (entropy change) (papain [2]): 72.92 (±2.33) Jmol-K^−1; ΔH (enthalpy change) (papain [2]; Van't Hoff plot): −6.2(±0.88) KJmol^−1; MIC50 [3]: 0.6 µg/mL (≈ 2.09 µM); MIC50 [4]: 0.6 µg/mL (≈ 2.09 µM); MIC90 [4]: 0.99 µg/mL (≈ 3.45 µM); MIC50 [5]: 0.8 µg/mL (≈ 2.78 µM); MIC90 [5]: 1.6 µg/mL (≈ 5.57 µM); MIC50 [6]: 0.6 µg/mL (≈ 2.09 µM); MIC90 [6]: 1.09 µg/mL (≈ 3.79 µM); MIC50 [7]: 0.9 µg/mL (≈ 3.13 µM); MIC90 [7]: 1.7 µg/mL (≈ 5.92 µM); MIC50 [8]: 0.7 µg/mL (≈ 2.44 µM); MIC90 [8]: 1.3 µg/mL (≈ 4.52 µM); MIC50 [9]: 0.8 µg/mL (≈ 2.78 µM); MIC90 [9]: 1.5 µg/mL (≈ 5.22 µM); MBC ([10]; read-out: MBC50): 1.2 µg/mL (≈ 4.18 µM); MBC ([10]; read-out: MBC90): 2.3 µg/mL (≈ 8 µM); MBC ([11]; read-out: MBC50): 1.3 µg/mL (≈ 4.52 µM); MBC ([11]; read-out: MBC90): 2.1 µg/mL (≈ 7.31 µM); MBC ([12]; read-out: MBC50): 1.3 µg/mL (≈ 4.52 µM); MBC ([12]; read-out: MBC90): 2.5 µg/mL (≈ 8.7 µM); MBC ([13]; read-out: MBC50): 1.6 µg/mL (≈ 5.57 µM); MBC ([13]; read-out: MBC90): 3.1 µg/mL (≈ 10.8 µM); MBC ([14]; ATCC27853, read-out: MBC50): 1.1 µg/mL (≈ 3.83 µM); MBC ([14]; ATCC27853, read-out: MBC90): 1.9 µg/mL (≈ 6.61 µM); MBC ([15]; ATCC31665, read-out: MBC50): 1.6 µg/mL (≈ 5.57 µM); MBC ([15]; ATCC31665, read-out: MBC90): 3.1 µg/mL (≈ 10.8 µM); MBC ([16]; read-out: MBC50): 1.8 µg/mL (≈ 6.26 µM); MBC ([16]; read-out: MBC90): 3.5 µg/mL (≈ 12.2 µM); MIC90 [17]: 1.2 µg/mL (≈ 4.18 µM)

Reference: article PMC3734177, “Design, Synthesis, Evaluation and Thermodynamics of 1-Substituted Pyridylimidazo[1,5-a]Pyridine Derivatives as Cysteine Protease Inhibitors” (PLoS ONE, 2013)
